Reference: patent US5369113A, “Certain 2,3-diphenyl-2-(1,2,4-oxadiazol-5-yl)tropanes useful as dopamide reuptake inhibitors” (NeuroSearch A/S, priority 1992, dated 1994)

Tests used:
dopamine release = settings: background statement; cited from earlier work
[1] = at every relevant dosing level tested
Text: The low intensity behavioural effects are here included into the locomotor and rearing syndrome.
The high intensity syndrome of stereotypy is here considered, if the behavioural repertoire of the rat becomes strongly restricted in variation and consists of the continuous repetition of one or a few items of behaviour.
The syndrome of stereotyped sniffing behaviour is thus performed continuously on only a small restricted area of the cage. […] During this stage of high intensity stereotypy all normal behavioural elements are absent including behaviour such as eating, drinking, grooming and normal explorative investigation of the environment. […] The rats are here usually sitting in a typical crouched posture in a corner of the cage. Backward locomotion may occasionally be observed.
The following rating scale is used for the high intensity stereotypy on the condition that the behavioural syndromes are as described above:
+=only stereotyped sniffing
++=stereotyped sniffing and episodic licking
+++=Continuous licking and/or biting gnawing

Row | Structure (SMILES) | dopamine releasing properties (dopamine release) | side effects as measured by abnormal stereotyped behaviour [1]
1 | COC(=O)[C@H]1[C@@H](OC(=O)c2ccccc2)C[C@@H]2CC[C@H]1N2C [cocaine] | strong dopamine releasing properties | –
2 | COC(=O)[C@@H]1[C@@H](c2ccc(F)cc2)C[C@@H]2CC[C@H]1N2C [trans isomer of Win 35,428, (1R,2R,3S)-2-carbomethoxy-3-(4-fluorophenyl)tropane] | – | essentially or totally devoid of side effects
